According to PubChem BioAssay (NCI):
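Five concentrations, 48 hours, 96-well plates. GI50: concentration for 50% inhibition of growth. TGI: concentration producing complete growth inhibition.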

Tests used:
Test in all cases: inhibition of tumour cell growth, NCI panel, 48 h
RPMI-8226 leukemia = system: RPMI-8226 leukemia
HOP-92 NSCLC = system: HOP-92 NSCLC
SF-268 CNS = system: SF-268 CNS
NCI-H522 lung = system: NCI-H522 lung
HCT-116 colon = system: HCT-116 colon
NCI-H226 lung = system: NCI-H226 lung
NCI-H460 lung = system: NCI-H460 lung
RXF 393 renal = system: RXF 393 renal
UACC-257 melanoma = system: UACC-257 melanoma
OVCAR-5 ovarian = system: OVCAR-5 ovarian

Row | Structure (SMILES) | TGI (RPMI-8226 leukemia) [µM] | TGI (HOP-92 NSCLC) [µM] | TGI (SF-268 CNS) [µM] | TGI (NCI-H522 lung) [µM] | TGI (HCT-116 colon) [µM] | TGI (NCI-H226 lung) [µM] | TGI (NCI-H460 lung) [µM] | TGI (RXF 393 renal) [µM] | TGI (UACC-257 melanoma) [µM] | TGI (OVCAR-5 ovarian) [µM] | GI50 (RPMI-8226 leukemia) [µM] | GI50 (HOP-92 NSCLC) [µM] | GI50 (SF-268 CNS) [µM] | GI50 (NCI-H522 lung) [µM] | GI50 (HCT-116 colon) [µM] | GI50 (NCI-H226 lung) [µM] | GI50 (NCI-H460 lung) [µM] | GI50 (RXF 393 renal) [µM] | GI50 (UACC-257 melanoma) [µM] | GI50 (OVCAR-5 ovarian) [µM]
1 | Cc1cc(=O)oc2c(C)c(O)ccc12 | > 100 | > 100 | > 100 | > 100 | > 100 | > 100 | > 100 | > 100 | > 100 | > 100 |  |  |  |  |  |  |  |  |  | 
2 | COc1cc2ncn(-c3cc(O[C@@H](C)c4ccccc4Cl)c(C(N)=O)s3)c2cc1OC | > 19 | > 25 | > 25 | 6.51 | > 25 | > 19.4 | > 25 | > 22.9 | > 21.9 | > 25 | 1.49 | 4.67 | 1.61 | 0.434 | 1.01 | 2.3 | 0.949 | 0.346 | 3.1 | 1.29
3 | C[C@@H](O)[C@H](NC(=O)N[C@@H](CC(N)=O)c1nc([C@@H](N)CO)no1)C(=O)O | > 100 | > 100 | > 100 | > 100 | > 100 | > 100 | > 100 | > 100 | > 100 | > 100 | > 100 | > 100 | > 100 | > 100 | > 100 | > 100 | > 100 | > 100 | > 100 | > 100
